The record followed here is a melting point compilation (Tetko et al.; mined from patent text by program, amines drawn as free bases though some values may be those of a salt).

Some results are limits rather than exact numbers.

On to `CC(=O)Cc1ccc2c(c1)C1(C)CCN(C)C1N2C` (centres undefined), for which the melting point (in general, the temperature, or range, at which the solid turns liquid) was in the range of 115 to 125 °C.
Next, `O=C(c1cccc(F)c1)N1CC2CC2(c2ccccc2)C1` (centres undefined): 68 to 69.5 °C.
Take `Cn1cc(-c2cc3cccnc3[nH]2)c2cc(OCC(=O)O)ccc21`: the melting point is > 300 °C.
For `CCCOC(=O)c1cc(C(=O)Nc2ccccc2O)cc(Br)c1O`, the melting point lay in the range of 198 to 200 °C.
Next, `CN1C(=O)[C@H](NC(=O)CCc2ccc(Cl)cc2Cl)N=C(c2ccccc2)c2cc(N)ccc21`: 179 to 180 °C; `CCOC(=O)c1cccc(Cc2c(C(=O)OCC)n(Cc3cc4c(cc3CC)OCO4)c3ccc(OCOC)cc3c2=O)c1`: 89 to 96 °C.
Next, `Oc1ccc2nc(NC3=NCCN3)[nH]c2c1`: 254 to 258 °C; `CCOC(=O)c1ccc2[nH]c([Si](C)(C)C)c(CCCO[Si](C)(C)C(C)(C)C)c2c1`: 115 to 116 °C.
On to `CCCCc1nc(S(=O)CC)c(C(=O)O)n1Cc1ccc(-c2ccccc2C(=O)O)cc1` (centres undefined), for which the melting point is 186 °C.
Next, `O=C(Nc1ccccc1)C1=C(N2CCCC2)COC1=O`: 200 to 201 °C; `CCCCCCCCCCCCCCCCCCc1ccc(O)c([N+](=O)[O-])c1`: 71 °C; `CCCc1c2oc(C(=O)O)cc(=O)c2cc2c(=O)cc(N(C(C)=O)C(C)=O)oc12`: 267 °C.
`BrCCC=C1c2ccccc2C=Cc2ccccc21` registered a melting point of 88 to 89 °C.
`CC(=O)OCc1c(C#N)cnc2c(NC(=O)c3c(Cl)cccc3Cl)cccc12` came in with a melting point of 201 to 203 °C.
Next, `Fc1cc(F)c(-c2c(F)nc3ncncc3c2F)c(F)c1`: 248 °C; `CC(C)c1nc2c(nc1C(C)C)-c1c(c(-c3ccc(C(=O)O)cc3)nn1Cc1cccnc1)CC2`: 204 to 206 °C; `Clc1c(-c2cnco2)[nH]c2ccccc12`: 131 to 134 °C.
Next, `O=S1(=O)c2cccc3cccc(c23)N1CCCN1CCC(n2c(O)nc3ccccc32)CC1`: 253 °C.
Next, `Cc1ccc(-c2nc3ccccc3[nH]2)nc1`: 229 to 230 °C; `COc1ccc(Cn2cc(OCc3ccccc3)c(=O)cc2C(=O)NCCNCc2ccccc2)cc1`: 112 °C; `CCN1c2ncc(C=Cc3cccc(C)c3)cc2C(=O)N(C)c2cccnc21`: 207 to 208 °C.
In the case of `Nc1cnc2cccnc2c1O`, the melting point was 315 to 320 °C.
As to `O=C(c1ccccc1)c1c(Cl)cc2n1CCC2C(=O)O` (centres undefined), the melting point turned out to be 190 °C.
Next, `ClCSc1ncc(Cl)cn1`: 78 °C; `COc1ccccc1C1(O)C(=O)Nc2cc(Cl)c(Cl)cc21` (centres undefined): 245 to 246 °C; `O=C(CBr)CCc1ccc(Cl)cc1`: 51 °C.
Next, `CC(C)(C)C(O)C(=Cn1ccnc1)Oc1ccc(F)cc1` (centres undefined): 112 to 113 °C.
Next, `Cc1ccc(NS(=O)(=O)c2ccc(N3CCNC3=O)cc2)cc1`: 218 to 220 °C; `Nn1cnn(C2CCc3ccccc3C2)c1=S` (centres undefined): 147 to 150 °C; `O=C1CCCC(Sc2ccccc2)=C1C(=O)c1ccc(Cl)c(OCCn2cnnn2)c1Cl`: 64 to 70 °C.
Consider `CCc1cc(OCc2ccc(-c3ccccc3-c3nnn(C(c4ccccc4)(c4ccccc4)c4ccccc4)n3)cc2)c2nc(OC(C)C)c(Cl)cc2n1`, for which the melting point was 179 to 183 °C.
Next, `CCC1(Cl)NN=C2C=Nc3cc(Cl)c(Cl)cc3N21` (centres undefined): 198 to 201 °C; `CC(C)(C)C(NC(=O)c1ccc(Cl)cc1)NC(=NC#N)Nc1c(F)cccc1F` (centres undefined): 211 to 213 °C.
`CN(C)C(=O)Sc1ccccc1C(=O)c1ccccc1C#N` showed a melting point of 130 °C.
In turn, `CCOC(=O)c1ccc(C(C(N)=O)C(C)c2cc(OC)ccc2N2CCCCC2)cc1` (centres undefined) gave a melting point of 131 to 132 °C.
In turn, `NC(=O)[C@@H]1[C@H](Nc2c(Br)cnc3[nH]c(-c4cccnc4N4CCCC4)nc23)[C@H]2C=C[C@@H]1C2` returned a melting point of 190 °C.
The compound `CCCn1c(=O)c2ccc(NC(=O)CC3CCCC3)cc2n1Cc1ccc(C(=O)OC)cc1OC` registered a melting point of 74.5 to 77 °C.
Compound `CC(=O)OCC1OC(n2cc(SC#N)c(=O)[nH]c2=O)CC1(O)C(C)=O` (centres undefined) had a melting point of 106 to 108 °C.
For `CC(=O)NCCCC(=O)N1CCCC(=O)c2ccc(Cl)cc2CCC1=O`, the melting point was 135 to 136 °C.
Next, `CCCCCCCC/C=C\CCCCCCCC(=O)CCCNC(=O)CCNC(=O)C1OC(C)(C)OCC1(C)C` (centres undefined): 45 to 47 °C; `Cc1noc(NS(=O)(=O)c2cccc3cccnc23)c1Br`: 169 to 171 °C.
Next, `O=C(O)c1cccc(C(=O)C=Cc2ccc(OCc3ccc4ccccc4n3)cc2)c1O`: 233 to 235 °C; `CCOC(=O)c1cnoc1-c1cc(Cl)c(Cl)s1`: 120 to 121 °C.
In turn, `COc1cn(-c2ccc(N3CCN(C(C)(C)C)C3=O)cc2F)nc(-c2ccnn2-c2ccccc2)c1=O` registered a melting point of 238 to 239 °C.
Regarding `O=C1c2cc(Cl)c(Cl)cc2-c2cc(O)cc3cccc1c23`, the melting point lay in the range of 355 to 360 °C.
Next, `CN1C(=O)C2=C(c3ccc(Br)cc3)N(c3ccccc3)C(=O)C2=C1c1ccccc1`: 255 to 256 °C; `COC(=O)CSc1nc(SCc2c(Cl)cccc2Cl)ncc1[N+](=O)[O-]`: 155 to 158 °C; `COC(=O)[C@@H](CC(C)C)NC(=O)c1ccc2c(c1)OCO2`: 89 to 90 °C.
On to `Cc1cc(OCCOc2ccc3ccccc3c2)ccc1C(=O)C(=O)O`, for which the melting point fell in the range of 129 to 131 °C.
Next, `CCc1nc2c(N)nc3ccccc3c2n1CCC1(O)CCOCC1`: 243 to 244 °C; `CCc1nsc(C(=O)NC(C)C)c1C(=O)OC`: 55 to 56 °C.
For the compound `N#Cc1cc(I)c(N)c(C(F)(F)F)c1`, the melting point fell in the range of 86 to 88 °C.
Next, `O=C(O)CCc1oc(N2CCOCC2)nc1-c1ccc(Cl)cc1`: 180 to 181 °C; `COC(=O)C(C#N)=C(O)c1cc(F)c(F)c(F)c1F`: 71 to 73 °C.
Next, `Cc1[nH]c(=O)sc1C#N`: 180 to 181 °C; `COc1ccc(CCNC(=O)C(=O)NO)cc1OC1CCCC1`: 136 to 137 °C.
Next, `Nc1nccc(C=Cc2ccccn2)c1[N+](=O)[O-]`: 161 to 163 °C; `CC1(C)C(=O)Oc2cc([N+](=O)[O-])c3ccc(Cn4cncn4)cc3c21`: 150 to 152 °C.
As to `Oc1ccc(C=C2c3ccccc3CCc3ccccc32)cc1O`, the melting point was determined as 138 °C.
Next, `c1coc(-c2ccc(-c3ccco3)cc2)c1`: 149 to 150 °C.
In the case of `O=c1nc(-c2c(F)cccc2F)oc(=O)n1-c1ccc(Cl)c(Cl)c1`, the melting point fell in the range of 196 to 197 °C.
On to `NC1=Nc2ccccc2CS1`, for which the melting point lay in the range of 132 to 135 °C.
Next, `Nc1nc(O)c2c(n1)NCC(CCc1ccc(C(=O)N[C@@H](CCC(=O)O)C(=O)O)cc1)C2` (some centres undefined): > 250 °C; `CC(C)c1nc2c(C(F)(F)F)cccc2c(O)c1C(=O)O`: 204 °C.
Next, `OCCc1ccc(OCC2CO2)cc1` (centres undefined): 56 to 58.5 °C.
Regarding `CC(C)C[C@H](NC(=O)c1cccc2c1Nc1ccccc1S2)C(=O)N[C@H]1CCOC1O` (some centres undefined), the melting point is 99 to 101 °C.
`COc1ccc([C@]2(C)CNC(=O)O2)cc1O` had a melting point of 142 °C.
Next, `CN1CC=C(C2=Nc3cc(Cl)ccc3Oc3ccc(Cl)cc32)CC1`: 166 to 167 °C.
Take `CCCc1nc(CO)c(C(=O)OCOC(=O)C(C)(C)C)n1Cc1ccc(-c2ccccc2-c2nnn[nH]2)cc1`: the melting point was > 60 °C.
In the case of `O=S(=O)(c1ccc(Cn2cnnn2)cc1)C1CCN(CCc2ccc(F)cc2F)CC1`, the melting point lay within 168 to 169 °C.
Next, `O=C(O)Cn1c(-c2ccccc2)c(Cc2nc3c(F)c(F)cc(F)c3s2)c2ccccc21`: 238 to 239 °C.
Next, `CCOC(=O)c1ncc(Cl)cc1NC(C)=O`: 98 to 100 °C; `CC(C)(O)[C@H](N)c1ccccc1`: 49 °C; `CC(C)OC(=O)COc1ccc(C(=O)CBr)cc1`: 60 to 61 °C.
In the case of `O=C(O)c1ccc(C#Cc2ccc(O)c(C34CC5CC(CC(C5)C3)C4)c2)cc1`, the melting point lay in the range of 254 to 255 °C.
Turning to `COC[C@H]1CCCN1C(=O)c1cc(-c2ccccc2)c(=O)n2ccc3ccc(Cl)cc3c12`, the melting point was 137 to 140 °C.
Next, `COCCNC(=O)c1cccc(-c2cccc3c(C)c(Cc4cccc(C(F)(F)F)c4)sc23)c1`: 135 to 136 °C; `CCOC(=O)N1CCN(C(=O)c2sc(NC(C)=O)nc2CCc2ccc(NC(=N)N)cc2)CC1`: 180 to 182 °C.
Next, `CC1C(=O)N(c2cccc(F)c2)C(=S)N1c1ccc(Oc2ccccc2)cc1` (centres undefined): 116 °C; `CCn1ncc2c3c(NCc4ccc(OC)c(Cl)c4)nnc(-n4cnc(C(=O)NC)c4)c3cnc21`: 181 to 183 °C.
Next, `CNC(=O)C1CN(C(=O)/C=C/C2=C(C)CCCC2(C)C)CCN1C(N)=O` (centres undefined): 100 to 112 °C; `NC(=O)c1csc(-c2cccc([N+](=O)[O-])c2)n1`: 239 to 241 °C; `Cc1c(CNS(=O)(=O)c2ccc(C(F)(F)F)cc2)nn(-c2ccc(Cl)cc2Cl)c1-c1ccc(Br)cc1`: 195 °C.
For the compound `Cc1c(C=O)c2ccccc2n1C`, the melting point was 129 °C.
Next, `N#CSc1nc(I)ncc1Cl`: 183 to 186 °C; `CCCCN(Cc1ccc(C#N)cc1Cl)c1c(NC(C)(C)C)c(=O)c1=O`: 133 to 134 °C; `CCOC(=O)COC1CCC2C3CCC4N(C)C(=O)CCC4(C)C3CCC12C` (centres undefined): 39 to 41 °C.
Next, `Cc1ccsc1C=Nc1cc([N+](=O)[O-])ccc1O`: 169 to 171 °C; `Cc1cc(-c2nnc(C(C)(C)C)o2)ccc1[N+](=O)[O-]`: 123 to 125 °C.
